Reference: patent US8822383B2, “Germination-stimulant carbamate derivatives and process for preparation thereof” (National University Corporation KOBE UNIVERSITY, priority 2010, dated 2014)

Columns and labels:
[1] = system: Orobanche (Orobanche minor) seeds; experiment: Test for Germination Stimulation Activity on Orobanche; assay type: in vivo; conditions: conditioned Orobanche minor seeds, 20 μl of 10 μM solution, 30° C., counted 4 days after; no compound: 0%
Description: (§1) First, 10 μmol of each test compound was weighed and dissolved in 2 ml of acetone. Each solution was diluted with distilled water to obtain a 10 μM solution. Next, a bottom of a petri dish was covered with a filter paper, and conditioned seeds of Orobanche (Orobanche minor) were placed on the filter paper, and then 20 μl of each diluted solution of test compound was applied to the seeds. For maintaining the humidity, a wet filter paper was prepared as long as water droplets were not dripped from the filter paper, and folded into four, and then placed onto the center of the petri dish. The petri dish was sealed with Parafilm®, and then covered with aluminum foil, and then incubated at 30° C. Four (4) days after, the number of germinated seeds was counted, and then a germination rate (%) was calculated by using the following formula: Germination rate(%)=(the number of germinated seeds/the total number of seeds)×100 The test compounds and the germination rates are shown in Tables 3 and 4. When no test compound was used in this test, the germination rate was 0%.

[2] = system: Striga (Striga hermonthica) seeds; experiment: Test for Germination Stimulation Activity on Striga; assay type: in vivo; conditions: conditioned Striga hermonthica seeds, 20 μl of 10 μM solution, 30° C., counted 24 hours later; no compound: 0%
Description: as §1, with “of Striga (Striga hermonthica)” for “of Orobanche (Orobanche minor)”, “C. Twenty four (24) hours later,” for “C. Four (4) days after,”, “Tables 1” for “Tables 3”, “and 2.” for “and 4.”

SMILES | Germination rate (%) [1] [%] | Germination rate (%) [2] [%]
CC1=CC(OC(=O)Nc2ccccc2)OC1=O (stereo not shown) [Compound No. 1, 4-methyl-5-oxo-2,5-dihydrofuran-2-yl phenylcarbamate] | 38.8 | 2.6
CC1=CC(SC(=O)N(C)c2ccccc2)OC1=O (stereo not shown) [Compound No. 8, 4-methyl-5-oxo-2,5-dihydrofuran-2-yl methyl(phenyl)thiolcarbamate] | 5.4 | 12.0
CC1=CC(OC(=O)NCCc2ccc(C)c(C)c2)OC1=O (stereo not shown) [Compound No. 10, 4-methyl-5-oxo-2,5-dihydrofuran-2-yl 2-(3,4-dimethylphenyl)ethylcarbamate] | 48.0 | 43.0
CC1=CC(OC(=O)N(C)CCc2ccccc2)OC1=O (stereo not shown) [Compound No. 6, 4-methyl-5-oxo-2,5-dihydrofuran-2-yl 2-phenethyl(methyl)carbamate] | 30.4 | 28.0
CC1=CC(OC(=O)NCCc2ccc3c(c2)OCO3)OC1=O (stereo not shown) [Compound No. 11, 4-methyl-5-oxo-2,5-dihydrofuran-2-yl 2-(3,4-methylenedioxyphenyl)ethylcarbamate] | 47.0 | 37.0
CC1=CC(OC(=O)NCc2ccccc2)OC1=O (stereo not shown) [Compound No. 2, 4-methyl-5-oxo-2,5-dihydrofuran-2-yl benzylcarbamate] | 61.1 | 38.1
CC1=CC(OC(=O)NCCc2cccc(C)c2C)OC1=O (stereo not shown) [Compound No. 9, 4-methyl-5-oxo-2,5-dihydrofuran-2-yl 2-(2,3-dimethylphenyl)ethylcarbamate] | 54.0 | 32.0
CC1=CC(OC(=O)NCCc2ccccc2)OC1=O (stereo not shown) [Compound No. 3, 4-methyl-5-oxo-2,5-dihydrofuran-2-yl phenethylcarbamate] | 66.9 | 54.0
CC1=CC(OC(=O)N(C)c2ccccc2)OC1=O (stereo not shown) [Compound No. 4, 4-methyl-5-oxo-2,5-dihydrofuran-2-yl methyl(phenyl)carbamate] | 66.3 | 53.5
CC1=CC(SC(=S)N(C)c2ccccc2)OC1=O (stereo not shown) [Compound No. 7, 4-methyl-5-oxo-2,5-dihydrofuran-2-yl methyl(phenyl)dithiocarbamate] | 15.3 | 32.6
CC1=CC(OC(=O)N(C)Cc2ccccc2)OC1=O (stereo not shown) [Compound No. 5, 4-methyl-5-oxo-2,5-dihydrofuran-2-yl benzyl(methyl)carbamate] | 75.2 | 48.4
